In the Kinase Knowledgebase extract (Sharma et al. 2016):

Each compound was assayed against CDK2 (UniProt P24941) (assay: Enzyme Assay).

Row | SMILES | IC50 [µM]
1 | CCc1cnc(CSc2cnc(NC(C)=O)s2)o1 | < 50
2 | CC(C)(C)C(=O)Cc1ncc(SCc2ncc(C(C)(C)C)o2)s1 | < 50
3 | CC(C)(C)c1cnc(CSc2cnc(Nc3cccc(CO)c3)s2)o1 | < 50
4 | CC(=O)Nc1ncc(SCc2ncc(C(C)(C)C)o2)s1 | < 50
5 | CCc1cnc(CSc2cnc(NC(=O)c3ccccc3)s2)o1 | < 50
6 | CC(=O)Nc1ncc(SC(F)c2ncc(C(C)C)o2)s1 (centres undefined) | < 50
7 | CC(C)(C)c1cnc(CSc2cnc(Nc3ccc(S(N)(=O)=O)cc3)s2)o1 | < 50
8 | CC(C)(C)c1cnc(CSc2cnc(NC(=NC#N)Nc3c(F)cccc3F)s2)o1 | < 50
9 | CC(C)(C)c1cnc(CSc2cnc(Nc3ccccn3)s2)o1 | < 50
10 | CC(C)(C)c1cnc(CSc2cnc(Nc3ccncn3)s2)o1 | < 50
11 | CC(C)(CO)CNCc1ccc(Nc2ncc(SCc3ncc(C(C)(C)C)o3)s2)nc1 | < 50
12 | CCc1coc(CSc2cnc(NC(C)O)s2)n1 (centres undefined) | < 50
13 | CC(C)(C)c1cnc(CSc2cnc(Nc3ccc(S(=O)(=O)NCCO)cc3)s2)o1 | < 50
14 | CC(=O)Nc1ncc(SCc2nc(C)c(C)o2)s1 | < 50
